Tests used:
Test in all cases: In vitro MMP inhibition analysis (fluorogenic peptide substrate cleavage), Ki
Assay type in all cases: biochemical
Conditions in all cases: Table 2
Human recombinant MMP-1 = target: T1, Human recombinant MMP-1 (Homo sapiens, UniProt P03956)
T1 construct: made in house; host or cells: MMP-1-transfected HT-1080 cells (spent media)
T1 sequence (P03956 100-469): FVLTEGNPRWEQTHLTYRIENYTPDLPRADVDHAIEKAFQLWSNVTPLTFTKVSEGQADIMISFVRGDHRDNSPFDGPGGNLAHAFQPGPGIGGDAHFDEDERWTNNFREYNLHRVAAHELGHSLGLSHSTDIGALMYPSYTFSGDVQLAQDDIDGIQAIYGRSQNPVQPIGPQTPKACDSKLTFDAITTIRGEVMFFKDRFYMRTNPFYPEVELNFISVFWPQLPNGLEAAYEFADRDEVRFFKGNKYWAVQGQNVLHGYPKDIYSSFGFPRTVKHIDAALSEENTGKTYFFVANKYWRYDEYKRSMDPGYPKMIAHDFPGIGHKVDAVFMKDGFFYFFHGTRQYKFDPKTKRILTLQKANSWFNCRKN
Procedure, shortened: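 APMA- or trypsin-activated recombinant human MMP-1 (purified from transfected HT-1080 medium) with 4 μM MCA/Dpa quenched fluorogenic peptide, 1 h at room temperature in Tris/NaCl/CaCl2 buffer pH 7.5; fluorescence ex 330/em 420 nm. Ki from Morrison-equation fit of rates, substrate at or below Km, uncorrected.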

Human recombinant MMP-9 = target: T2, Human recombinant MMP-9 (Homo sapiens, UniProt P14780)
T2 construct: made in house; host or cells: MMP-9-transfected HT1080 cells (spent media)
Procedure, shortened: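 Recombinant MMP-9 purified from transfected HT1080 cell media, activated with APMA, trypsin or recombinant MMP-3, assayed in Tris buffer pH 7.5 with CaCl2 and 4 μM fluorogenic MCA/Dpa peptide, 1 h at room temperature (ex 330/em 420 nm). Ki from Morrison-equation regression of velocity; substrate at or below Km, uncorrected.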

Human recombinant MMP-13 = target: T3, Human recombinant MMP-13 (Homo sapiens, UniProt P45452)
T3 construct: made in house; host or cells: baculovirus / insect cells
Procedure, shortened: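 Baculovirus-expressed full-length MMP-13 proenzyme was purified on heparin-agarose and zinc-chelate columns, then APMA-activated. It cleaved 4 μM MCA/Dpa fluorogenic peptide in 100 mM Tris-HCl, 100 mM NaCl, 10 mM CaCl2, 0.05% Brij-23, pH 7.5, for 1 h at room temperature (ex 330/em 420 nm). Ki came from Morrison-equation fits with substrate ≤Km, uncorrected.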

T2 sequence (P14780 107-707 limits assumed): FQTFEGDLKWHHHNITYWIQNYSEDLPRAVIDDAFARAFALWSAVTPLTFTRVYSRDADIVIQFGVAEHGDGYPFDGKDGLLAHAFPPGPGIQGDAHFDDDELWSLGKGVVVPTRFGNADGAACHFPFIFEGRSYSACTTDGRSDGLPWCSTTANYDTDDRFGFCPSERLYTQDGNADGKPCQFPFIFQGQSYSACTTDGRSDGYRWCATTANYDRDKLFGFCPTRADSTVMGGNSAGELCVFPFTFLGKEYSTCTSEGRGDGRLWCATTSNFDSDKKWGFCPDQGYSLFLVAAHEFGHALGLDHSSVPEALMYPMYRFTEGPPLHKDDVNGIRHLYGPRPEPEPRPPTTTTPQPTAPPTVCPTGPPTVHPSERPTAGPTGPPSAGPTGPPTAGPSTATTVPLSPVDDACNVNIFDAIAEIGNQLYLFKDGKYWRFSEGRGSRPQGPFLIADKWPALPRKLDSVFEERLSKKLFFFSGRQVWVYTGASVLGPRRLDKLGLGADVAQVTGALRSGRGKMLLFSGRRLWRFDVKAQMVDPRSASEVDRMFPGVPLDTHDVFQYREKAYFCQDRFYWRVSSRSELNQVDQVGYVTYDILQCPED

SMILES | Ki (Human recombinant MMP-1) [nM] | Ki (Human recombinant MMP-9) [nM] | Ki (Human recombinant MMP-13) [nM]
O=C(NO)C1(S(=O)(=O)c2ccc(-c3ccc(CCC(F)(F)C(F)(F)F)cc3)cc2)CCS(=O)(=O)CC1 [Example 167] | > 10000 | 12.5 | 0.74
CC[C@H](C)NC(=O)c1ccc(-c2ccc(S(=O)(=O)C3(C(=O)NO)CCOCC3)cc2)nc1 [Example 208] | 1260 | 39.4 | 0.715
CC(C)c1ccc(-c2ccc(S(=O)(=O)C3(C(=O)NO)CCOCC3)cc2)cc1 [Example 97] | 1040 | 5.4 | 0.521
O=C(NO)C1(S(=O)(=O)c2ccc(-c3ccc(OC(F)(F)F)cc3)cc2)CCOCC1 [Example 80] | 577 | 0.622 | 0.068
O=C(NO)C1(S(=O)(=O)c2ccc(-c3cnc(OCCC4CC4)cn3)cc2)CCOCC1 [Example 172] | 1360 | 0.06 | 0.03
COCCN1CCC(C(=O)NO)(S(=O)(=O)c2ccc(-c3cnc(OCCC4CCCC4)cn3)cc2)CC1 [Example 200] | > 10000 | 0.648 | 0.144
O=C(c1ccc2cc(-c3ccc(S(=O)(=O)C4(C(=O)NO)CCOCC4)cc3)ccc2c1)N1CCOCC1 [Example 222] | 1440 | 29.5 | 0.612
O=C(NO)C1(S(=O)(=O)c2ccc(-c3ccc(F)c(C(F)(F)F)c3)cc2)CCOCC1 [Example 84] | > 10000 | 97.1 | 1.85
O=C(NO)C1(S(=O)(=O)c2ccc(-c3ccc(OCC(F)(F)C(F)(F)F)cc3)cc2)CCOCC1 [Example 95] | 1020 | 0.752 | 0.155
O=C(NO)C1(S(=O)(=O)c2ccc(-c3cnc(OCCC4CCCC4)cn3)cc2)CCOCC1 [Example 180] | > 10000 | 1.03 | 0.15
COCCO[C@H]1CC[C@](C(=O)NO)(S(=O)(=O)c2ccc(-c3cnc(CCC(F)(F)C(F)(F)F)cn3)cc2)CC1 [Example 187] | 7020 | 0.16 | 0.1
CCN1CCC(C(=O)NO)(S(=O)(=O)c2ccc(-c3cnc(CCC(F)(F)F)cn3)cc2)CC1 [Example 213] | > 10000 | 4.8 | 1.41
O=C(NO)C1(S(=O)(=O)c2ccc(-c3cnc(CCC(F)(F)F)cn3)cc2)CCN(C2CC2)CC1 [Example 215] | > 10000 | 1 | 0.356
Cc1nc(CCc2ccc(-c3ccc(S(=O)(=O)C4(C(=O)NO)CCOCC4)cc3)cc2)no1 [Example 219] | 1700 | 9.25 | 0.111
O=C(c1ccc2cc(-c3ccc(S(=O)(=O)C4(C(=O)NO)CCOCC4)cc3)ccc2c1)N1CCCCC1 [Example 223] | 1500 | 34.3 | 0.97
O=C(NCC1CC1)c1cnc(-c2ccc(S(=O)(=O)C3(C(=O)NO)CCOCC3)cc2)cn1 [Example 191] | 200 | 1.43 | 0.24
CCN1CCC(C(=O)NO)(S(=O)(=O)c2ccc(-c3cnc(CCCC(F)(F)F)cn3)cc2)CC1 [Example 217] | > 10000 | 5.22 | 1.2
COCCOC1CCC(C(=O)NO)(S(=O)(=O)c2ccc(-c3cnc(CCCC(F)(F)F)cn3)cc2)CC1 (stereo not drawn) [Example 210] | > 10000 | 0.75 | 0.151
CC(C)COc1cnc(-c2ccc(S(=O)(=O)C3(C(=O)NO)CCOCC3)cc2)cn1 [Example 170] | 693 | 0.08 | 0.08

SMILES | Ki (Human recombinant MMP-1) [nM] | Ki (Human recombinant MMP-9) [nM] | Ki (Human recombinant MMP-13) [nM]
O=C(NO)C1(S(=O)(=O)c2ccc(-c3nc4ccccc4o3)cc2)CCOCC1 [Example 193] | 1490 | 11.5 | 1.69
O=C(NO)C1(S(=O)(=O)c2ccc(-c3ccc(CCC(F)(F)F)cn3)cc2)CCOCC1 [Example 176] | 1200 | 0.04 | 0.02
O=C(N1CCCCC1)N1CCC(C(=O)NO)(S(=O)(=O)c2ccc(-c3ccc(CCC(F)(F)C(F)(F)F)cc3)cc2)CC1 [Example 175] | > 10000 | 1.35 | 0.71
O=C(NO)C1(S(=O)(=O)c2ccc(-c3cnc(-n4cccc4)cn3)cc2)CCOCC1 [Example 94] | > 10000 | 3.4 | 0.428
CCCCNc1cnc(-c2ccc(S(=O)(=O)C3(C(=O)NO)CCOCC3)cc2)cn1 [Example 83] | > 10000 | 2.75 | 1.31
CO[C@H]1CC[C@](C(=O)NO)(S(=O)(=O)c2ccc(-c3cnc(CCC(F)(F)C(F)(F)F)cn3)cc2)CC1 [Example 183] | > 10000 | 0.14 | 0.13
CC(C)CC#Cc1cnc(-c2ccc(S(=O)(=O)C3(C(=O)NO)CCOCC3)cc2)cn1 [Example 166] | 1660 | 0.1 | 0.03
O=C(NO)C1(S(=O)(=O)c2ccc(-c3cnc(OCC4CCC4)cn3)cc2)CCOCC1 [Example 178] | 1100 | 0.14 | 0.08
O=C(N1CCOCC1)N1CCC(C(=O)NO)(S(=O)(=O)c2ccc(-c3ccc(CCC(F)(F)C(F)(F)F)cc3)cc2)CC1 [Example 171] | 6370 | 0.62 | 0.23
O=C(NO)C1(S(=O)(=O)c2ccc(-c3ccc(C(F)(F)F)cc3F)cc2)CCOCC1 [Example 96] | 602 | 2.14 | 0.416
O=C(NO)C1(S(=O)(=O)c2ccc(-c3nc4ccccc4s3)cc2)CCOCC1 [Example 195] | > 10000 | 32.2 | 7.2
COCCOC1CCC(C(=O)NO)(S(=O)(=O)c2ccc(-c3ccc(CCCC(F)(F)F)cn3)cc2)CC1 (stereo not drawn) [Example 209] | 1280 | 0.138 | 0.029
COc1ccc(C(=O)c2cnc(-c3ccc(S(=O)(=O)C4(C(=O)NO)CCOCC4)cc3)cn2)cc1 [Example 179] | > 10000 | 38.6 | 0.973
O=C1c2ccccc2C(=O)N1CCCOc1cccc(-c2ccc(S(=O)(=O)C3(C(=O)NO)CCOCC3)cc2)c1 [Example 196] | > 10000 | 430 | 13.5
O=C(NCC1CCCCC1)c1cnc(-c2ccc(S(=O)(=O)C3(C(=O)NO)CCOCC3)cc2)cn1 [Example 190] | 1310 | 32.3 | 0.28
O=C(NCC(F)(F)C(F)(F)F)c1cnc(-c2ccc(S(=O)(=O)C3(C(=O)NO)CCOCC3)cc2)cn1 [Example 192] | 1540 | 41.1 | 0.22
Cc1ccc(-c2ccc(S(=O)(=O)C3(C(=O)NO)CCOCC3)cc2)nc1 [Example 81] | 354 | 0.993 | 0.118
COCCN1CCC(C(=O)NO)(S(=O)(=O)c2ccc(-c3cnc(CCC(F)(F)F)cn3)cc2)CC1 [Example 214] | > 10000 | 2.05 | 0.661
CCCCNC(=O)c1cnc(-c2ccc(S(=O)(=O)C3(C(=O)NO)CCOCC3)cc2)cn1 [Example 184] | 533 | 13.1 | 0.21

Reference: patent publication US20060074243A1, “Hydroxamic acid and amide compounds and their use as protease inhibitors” (Pharmacia Corporation, priority 2002, published 2006)
